This is an account of results in US20050260711A1, “Modulating pH-sensitive binding using non-natural amino acids” (priority 2004, published 2005).

For series [1] the following is noted: cited from earlier work; for pKa (second of two pKa's): higher of the two pKa's of the side-chain moiety; for pKa (first of two pKa's): lower of the two pKa's of the side-chain moiety.
For series [2], the target named is leucine zipper c-MYC-MAX heterodimer (Homo sapiens, UniProt P01106+P61244). As to conditions: histidine at the center of c-MYC-MAX leucine zipper; cited from earlier work.
Sequence of leucine zipper c-MYC-MAX heterodimer (P01106 428-449 limits assumed): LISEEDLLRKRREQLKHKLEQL
Sequence of leucine zipper c-MYC-MAX heterodimer (P61244 81-102 limits assumed): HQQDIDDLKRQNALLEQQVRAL
In a further series the target is E. coli LeuRS (Escherichia coli, UniProt P07813). As to conditions: in vitro; cited from earlier work.
Sequence of E. coli LeuRS (P07813 whole entry): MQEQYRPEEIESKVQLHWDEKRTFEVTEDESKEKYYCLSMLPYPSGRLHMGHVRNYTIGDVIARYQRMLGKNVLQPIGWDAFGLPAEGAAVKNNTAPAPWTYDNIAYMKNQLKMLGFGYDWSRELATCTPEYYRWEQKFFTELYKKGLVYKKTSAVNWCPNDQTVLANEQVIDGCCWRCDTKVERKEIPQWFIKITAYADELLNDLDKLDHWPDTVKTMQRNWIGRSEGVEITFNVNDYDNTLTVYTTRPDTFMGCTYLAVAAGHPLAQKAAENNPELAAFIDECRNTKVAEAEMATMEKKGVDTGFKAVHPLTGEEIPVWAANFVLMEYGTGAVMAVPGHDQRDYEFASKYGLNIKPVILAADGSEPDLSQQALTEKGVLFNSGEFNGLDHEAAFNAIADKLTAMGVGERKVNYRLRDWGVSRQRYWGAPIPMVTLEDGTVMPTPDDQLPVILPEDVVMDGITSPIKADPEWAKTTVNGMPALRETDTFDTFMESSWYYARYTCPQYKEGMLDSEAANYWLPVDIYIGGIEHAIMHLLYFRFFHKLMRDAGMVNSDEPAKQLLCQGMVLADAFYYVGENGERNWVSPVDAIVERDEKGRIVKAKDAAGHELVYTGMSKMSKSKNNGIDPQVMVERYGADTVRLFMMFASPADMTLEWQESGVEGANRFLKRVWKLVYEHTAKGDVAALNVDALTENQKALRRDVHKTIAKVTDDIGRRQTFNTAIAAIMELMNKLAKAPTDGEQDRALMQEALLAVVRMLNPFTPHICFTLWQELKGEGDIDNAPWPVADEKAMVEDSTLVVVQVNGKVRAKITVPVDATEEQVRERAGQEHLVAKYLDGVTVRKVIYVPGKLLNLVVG
For the next series, the system named is E. coli. Put plainly: growth and Nal incorporation of E. coli expression host with added AZL. It counts as cell-based. The note with it: AZL added to the medium. The protocol:
Incomplete occupancy of the UUG codon by Nal is due at least in part to competition with leucine-charged E. coli tRNA^LeuS. In an attempt to reduce competition by E. coli tRNA^LeuS, use of a mutant E. coli strain lacking tRNA^LeuCAA and addition of an E. coli leucyl-tRNA synthetase (LeuRS) inhibitor were tested. A Phe/Leu double auxotrophic strain derived from the tRNA^LeuCAA-deficient strain XA106 (CGSC at Yale) was tested for incorporation of Nal at the UUG codon.
Peptide 5UUG/UUG (residues 26-35, […], SEQ ID NO: 8) contains two Leu residues encoded as UUG. Upon addition of Nal, the masses of these fragments shift in accord with the mass difference between Nal and Leu. Only Nal (a), Nal and 1 mM AZL (b) were supplemented into the media.

The target in series [3] is mu-yPheRS (modified yeast PheRS, Thr415Gly) (Saccharomyces cerevisiae, UniProt P15625, T415G). The note with it: Nal versus Phe. The protocol: The modified yeast PheRS (mu-yPheRS) was prepared by introduction of a Thr415Gly mutation in the α-subunit of the synthetase (Datta et al., J. Am. Chem. Soc. 124: 5652, 2002). The kinetics of activation of Nal and Phe by mu-yPheRS were analyzed in vitro via the pyrophosphate exchange assay.
Sequence of mu-yPheRS (modified yeast PheRS, Thr415Gly) (P15625 whole entry T415G): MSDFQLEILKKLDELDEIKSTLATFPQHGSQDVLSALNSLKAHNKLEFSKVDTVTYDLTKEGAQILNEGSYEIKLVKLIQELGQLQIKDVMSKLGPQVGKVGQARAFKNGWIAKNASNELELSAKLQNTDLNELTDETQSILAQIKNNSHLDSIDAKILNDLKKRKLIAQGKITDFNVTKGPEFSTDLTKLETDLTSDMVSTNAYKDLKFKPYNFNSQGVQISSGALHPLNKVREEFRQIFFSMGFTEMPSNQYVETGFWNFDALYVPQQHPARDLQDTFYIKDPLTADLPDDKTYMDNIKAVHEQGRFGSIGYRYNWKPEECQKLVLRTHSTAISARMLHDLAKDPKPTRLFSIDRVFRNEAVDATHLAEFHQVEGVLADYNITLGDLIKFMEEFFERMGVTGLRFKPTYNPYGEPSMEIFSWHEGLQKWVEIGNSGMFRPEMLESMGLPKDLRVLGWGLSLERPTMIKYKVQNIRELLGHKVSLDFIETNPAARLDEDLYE
Sequence of mu-yPheRS (modified yeast PheRS, Thr415Gly) (P15624 whole entry, further chain): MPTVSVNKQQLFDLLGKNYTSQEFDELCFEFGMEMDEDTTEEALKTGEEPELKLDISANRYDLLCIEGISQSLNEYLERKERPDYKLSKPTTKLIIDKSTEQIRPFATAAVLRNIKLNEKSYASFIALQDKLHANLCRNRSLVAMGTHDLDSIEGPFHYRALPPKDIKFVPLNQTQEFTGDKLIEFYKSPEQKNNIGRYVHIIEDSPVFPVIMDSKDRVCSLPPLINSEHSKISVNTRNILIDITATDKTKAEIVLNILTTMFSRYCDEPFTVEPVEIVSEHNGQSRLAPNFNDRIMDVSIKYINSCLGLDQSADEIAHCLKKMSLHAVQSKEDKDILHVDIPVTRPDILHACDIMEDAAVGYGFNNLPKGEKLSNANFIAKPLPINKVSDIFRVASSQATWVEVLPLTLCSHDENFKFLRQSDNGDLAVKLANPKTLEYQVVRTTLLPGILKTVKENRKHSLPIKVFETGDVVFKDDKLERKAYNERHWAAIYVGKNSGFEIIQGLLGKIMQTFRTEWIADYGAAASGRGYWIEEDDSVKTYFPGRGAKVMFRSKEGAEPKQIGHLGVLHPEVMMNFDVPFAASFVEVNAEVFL

Take `N[C@@H](Cc1c[nH]cn1)C(=O)O` [histidine]: in series [1], the “pKa (second of two pKa's)” value was 14.52 and the “pKa (first of two pKa's)” value is given as 7.05. Also, the “histidine pKa, experimental value” in series [2] is 7.19.
Regarding `CN(C)CC(N)C(=O)O` (racemic) [AZL, 4-Aza-DL-leucine], the “inhibition of E. coli LeuRS” value at E. coli LeuRS is on record as “competitive inhibitor”. Also, the “growth rate of the host” value in the series on E. coli is listed as “reduced the growth rate”. Further, the “occupancy of the UUG codon by Nal” value with E. coli (mDHFR expression) is recorded as “enhanced occupancy”.
As for `N[C@@H](Cc1c[nH]c(F)n1)C(=O)O` [2-fluoro-histidine], in series [1], the “pKa (second of two pKa's)” value is 11.5 and the “pKa (first of two pKa's)” value is listed as 4.0.
On to `N[C@@H](Cc1ccc2ccccc2c1)C(=O)O` [Nal, L-3-(2-naphthyl)alanine], for which, in series [3], the “kcat/KM relative to that for Phe” value was determined as 8 fold.
